Experimental data as given in patent US20070105865A1, “Substituted bicyclic quinazolin-4-ylamine derivatives” (Neurogen Corporation, priority 2003, published 2007).
Counter-ions that a name gives are not always drawn.

Molecular target: T1, human capsaicin receptor (Homo sapiens, UniProt Q8NER1)
T1 construct: transfected with the pBK-CMV expression construct encoding the full length human capsaicin receptor using standard methods; expressed in transfected cells
Experiment: Calcium mobilization assay (Example 6)
Format: cell-based
Conditions: determined as described in Example 6; cells expressing human capsaicin receptor, capsaicin response
Experimental: Human embryonic kidney (HEK293) cells were transfected with the pBK-CMV expression construct encoding the full length human capsaicin receptor using standard methods. The transfected cells were selected for two weeks in media containing G418 (400 μg/ml) to obtain a pool of stably transfected cells. Independent clones were isolated from this pool by limiting dilution to obtain clonal stable cell lines for use in subsequent experiments.
This Example illustrates a representative calcium mobilization assay for use in monitoring the response of cells expressing capsaicin receptor to capsaicin and other vanilloid ligands of the capsaicin receptor, as well as for evaluating test compounds for agonist and antagonist activity.
Cells transfected with expression plasmids (as described in Example 4) and thereby expressing human capsaicin receptor are seeded and grown to 70-90% confluency in FALCON black-walled, clear-bottomed 96-well plates (#3904, BECTON-DICKINSON, Franklin Lakes, N.J.). The culture medium is emptied from the 96 well plates and FLUO-3 AM calcium sensitive dye (Molecular Probes, Eugene, Oreg.) is added to each well (dye solution: 1 mg FLUO-3 AM, 440 μL DMSO and 440 μl 20% pluronic acid in DMSO, diluted 1:250 in Krebs-Ringer HEPES (KRH) buffer (25 mM HEPES, 5 mM KCl, 0.96 mM NaH2PO4, 1 mM MgSO4, 2 mM CaCl2, 5 mM glucose, 1 mM probenecid, pH 7.4), 50 μl diluted solution per well). Plates are covered with aluminum foil and incubated at 37° C. for 1-2 hours in an environment containing 5% CO2. After the incubation, the dye is emptied from the plates, and the cells are washed once with KRH buffer, and resuspended in KRH buffer.
Agonist (e.g., olvanil, capsaicin or RTX)-induced calcium mobilization is monitored using either FLUOROSKAN ASCENT (Labsystems, Franklin, Mass.) or FLIPR (fluorometric imaging plate reader system, Molecular Devices, Sunnyvale, Calif.) instruments. Varying concentrations of the antagonists ruthenium red or capsazepine (RBI; Natick, Mass.) are added to cells concurrently with agonist (e.g., 25-50 nM capsaicin). For agonist-induced calcium responses, data obtained between 30 and 60 seconds after agonist application are used to generate the IC50 values. KALEIDAGRAPH software (Synergy Software, Reading, Pa.) is used to fit the data to the equation: y=a*(1/(1+(b/x)^c)) to determine the IC50 for the response. In this equation, y is the maximum fluorescence signal, x is the concentration of the agonist or antagonist, a is the Emax, b corresponds to the IC50 value and c is the Hill coefficient.
To measure the ability of a test compound to antagonize (inhibit) the response of cells expressing capsaicin receptors to capsaicin or other vanilloid agonist, the IC50 of capsaicin is first determined. An additional 20 μl of KRH buffer and 1 μl DMSO is added to each well of cells, prepared as described above. 100 μl capsaicin in KRH buffer is automatically transferred by the FLIPR instrument to each well. An 8-point concentration response curve, with final capsaicin concentrations of 1 nM to 3 μM, is used to determine capsaicin IC50.
Test compounds are dissolved in DMSO, diluted in 20 μl KRH buffer so that the final concentration of test compounds in the assay well is between 1 μM and 5 μM, and added to cells prepared as described above. The 96 well plates containing prepared cells and test compounds are incubated in the dark, at room temperature for 0.5 to 6 hours. It is important that the incubation not continue beyond 6 hours. Just prior to determining the fluorescence response, 100 μl capsaicin in KRH buffer at twice the IC50 concentration determined from the concentration response curve is automatically added by the FLIPR instrument to each well of the 96 well plate for a final sample volume of 200 μl and a final capsaicin concentration equal to the IC50. The final concentration of test compounds in the assay wells is between 1 μM and 5 μM. […]

T1 sequence (Q8NER1 whole entry): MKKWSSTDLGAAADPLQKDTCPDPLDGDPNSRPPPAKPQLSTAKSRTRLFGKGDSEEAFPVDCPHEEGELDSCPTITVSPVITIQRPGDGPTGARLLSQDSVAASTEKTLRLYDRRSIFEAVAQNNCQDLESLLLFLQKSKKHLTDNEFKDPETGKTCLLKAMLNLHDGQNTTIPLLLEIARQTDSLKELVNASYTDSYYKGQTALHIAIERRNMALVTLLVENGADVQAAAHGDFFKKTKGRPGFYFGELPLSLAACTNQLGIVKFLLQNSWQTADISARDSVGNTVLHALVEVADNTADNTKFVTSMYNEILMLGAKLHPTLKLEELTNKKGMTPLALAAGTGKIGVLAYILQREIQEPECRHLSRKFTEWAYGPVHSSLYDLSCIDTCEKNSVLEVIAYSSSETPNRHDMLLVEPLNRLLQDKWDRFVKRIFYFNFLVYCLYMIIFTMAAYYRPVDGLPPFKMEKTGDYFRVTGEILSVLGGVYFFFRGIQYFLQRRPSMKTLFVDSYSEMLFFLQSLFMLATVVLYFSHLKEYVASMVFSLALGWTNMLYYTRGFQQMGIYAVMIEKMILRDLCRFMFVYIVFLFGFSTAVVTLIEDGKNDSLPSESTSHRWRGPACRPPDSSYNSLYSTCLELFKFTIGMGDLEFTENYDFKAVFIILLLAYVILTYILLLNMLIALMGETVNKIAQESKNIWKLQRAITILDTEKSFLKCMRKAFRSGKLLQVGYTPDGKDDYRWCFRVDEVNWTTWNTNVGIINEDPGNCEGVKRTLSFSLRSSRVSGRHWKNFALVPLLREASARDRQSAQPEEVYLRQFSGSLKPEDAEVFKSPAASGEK

| IC50 [nM] | SMILES |
| --- | --- |
| < 1000 | CN1Cc2cc(Nc3ncnc4cc(-c5ncccc5C(F)(F)F)ccc34)ccc2C(C)(C)C1 [Compound 3, [7-(3-Trifluoromethyl-pyridin-2-yl)-quinazolin-4-yl]-(2,4,4-trimethyl-1,2,3,4-tetrahydro-isoquinolin-7-yl)-amine hydrochloride] |
| < 1000 | COCc1nc(Nc2ccc3c(c2)NCCC3)c2ccc(-c3ncccc3C(F)(F)F)nc2n1 [Compound 5, [2-Methoxymethyl-7-(3-trifluorometyl-pyridin-2-yl)-pyrido[2,3-d]pyrimidin-4-yl]-(1,2,3,4-tetrahydro-quinolin-7-yl)-amine] |
| < 1000 | COCc1cc(Nc2ccc3c(c2)NCCC3(C)C)c2ccc(-c3ncccc3C(F)(F)F)nc2n1 [Compound 10] |

Second part, the compound before the results:

| SMILES | IC50 [nM] |
| --- | --- |
| COCc1nc(Nc2ccc3c(c2)N(C)CCC3)c2ccc(-c3ncccc3Cl)nc2n1 [Compound 1, [7-(3-Chloro-pyridin-2-yl)-2-methoxymethyl-pyrido[2,3-d]pyrimidin-4-yl]-(1-methyl-1,2,3,4-tetrahydro-quinolin-7-yl)-amine] | < 1000 |
| CC(C)COCc1nc(Nc2ccc3c(c2)NCCC3(C)C)c2ccc(-c3ncccc3C(F)(F)F)nc2n1 [Compound 4, (4,4-Dimethyl-1,2,3,4-tetrahydro-quinolin-7-yl)-[2-isobutoxymethyl-7-(3-trifluoromethyl-pyridin-2-yl)pyrido[2,3-d]pyrimidin-4-yl]-amine hydrochloride] | < 1000 |
| CCOCc1nc(Nc2ccc3c(c2)N(C)CCO3)c2ccc(-c3ncccc3Cl)nc2n1 [Compound 6] | < 1000 |
| CCOCc1nc(Nc2ccc3c(c2)N(C(C)=O)CC3(C)C)c2ccc(-c3ncccc3C)nc2n1 [Compound 7, 1-{6-[2-Ethoxymethyl-7-(3-methyl-pyridin-2-yl)-pyrido[2,3-d]pyrimidin-4-ylamino]-3,3-dimethyl-2,3-dihydro-indol-1-yl}-ethanone] | < 1000 |
| CC(C)COCc1nc(Nc2ccc3c(c2)N(C)CC3(C)C)c2ccc(-c3ncccc3Cl)nc2n1 [Compound 8, [7-(3-Chloro-pyridin-2-yl)-2-isobutoxymethyl-pyrido[2,3-d]pyrimidin-4-yl]-(1,3,3-trimethyl-2,3-dihydro-1H-indol-6-yl)-amine] | < 1000 |
| CN1Cc2cc(Nc3ncnc4cc(-c5ncccc5Cl)cnc34)ccc2C(C)(C)C1 [Compound 9, [7-(3-Chloro-pyridin-2-yl)-pyrido[3,2-d]pyrimidin-4-yl]-(2,4,4-trimethyl-1,2,3,4-tetrahydro-isoquinolin-7-yl)-amine hydrochloride] | < 1000 |
